Values of other authors, collected in patent US20240269237A1, “PHARMACEUTICAL COMPOSITION AND KIT COMPRISING AN IMMUNOMODULATORY SUBSTANCE FOR TREATING DISEASES” (ellennbe GmbH, priority 2021, published 2024).

Experiments:
[1] = system: rheumatoid arthritis; details: for adverse effects of earlier treatment: Patient 7, history, regimen of MTX and upadacitinib tried a second time
[2] = system: ankylosing spondylitis (Bechterew's disease); details: for effect of earlier treatment with biologics: Patient 11, history, within half a year the biologics lost their effect; for tolerability of earlier TNF-α inhibitors: human, in vivo
[3] = system: perfusion of the skin; details: healthy subjects

CC[C@@H]1CN(C(=O)NCC(F)(F)F)C[C@@H]1c1cnc2cnc3[nH]ccc3n12 [upadacitinib]
adverse effects of earlier treatment [1]: severe adverse effects (tendency to fibrosis in the lungs and sinusitis)

adalinumab [Humira®]
effect of earlier treatment with biologics [2]: little effect from the outset

Remicade®: TNF-α inhibitor
tolerability of earlier TNF-α inhibitors [2]: strong adverse side effects

COC(=O)c1cccnc1 [MN, methyl nicotinate]
perfusion response ([3]; 50 μl of 20 mmol/l topically): reproducible perfusion response
time course of perfusion increase ([3]; topical application): reaches a stable plateau phase after five minutes

etanercept [Enbrel®]
tolerability of earlier TNF-α inhibitors [2]: strong adverse side effects

Symponi®: TNF-α inhibitor
tolerability of earlier TNF-α inhibitors [2]: strong adverse side effects

tocilizumab
efficacy of basic treatment ([1]; Patient 7, 162 mg per week): only partially efficient

golimumab [Simponi®]
effect of earlier treatment with biologics [2]: little effect from the outset

CN(Cc1cnc2nc(N)nc(N)c2n1)c1ccc(C(=O)N[C@@H](CCC(=O)O)C(=O)O)cc1 [MTX, methotrexate]
adverse effects of earlier treatment [1]: severe adverse effects (tendency to fibrosis in the lungs and sinusitis)
